In patent publication US9976183B2, “Biomarkers for cancers responsive to modulators of HEC1 activity” (TAIVEX THERAPEUTICS CORPORATION, priority 2011, dated 2018):

How the values were obtained:
Format in all cases: cell-based
[1] = system: MEX-SA/Dx5; assay: Drug sensitivity, MTS assay, drug resistant cell line; conditions: MEX-SA/Dx5, multi-drug resistant uterine sarcoma
Description: Drug sensitivity: Cell lines were screened for drug sensitivity by treatment with specified drugs 24 hours after seeding in appropriate seeding numbers into 96 well plates containing low glucose DME with 10% FBS. The drug was added to the plate in triplicate wells, and the cells are incubated in drug treated medium for 96 hours before cell viability was determined by MTS assay using CellTiter 96® Aqueous non-radioactive cell proliferation assay system (Promega, Madison, Wis. 53711 USA). The MTS assay was performed according to the manufacturer's instructions. Optical density was measured using a Bio-Tek 340 spectrophotometer (Bio-Tek, Winooski, Vt. 05404) and optical readings were then processed in Excel (Microsoft, Redmond, Wash. 98052-7329) and GraphPad Prism 5 linear regression software (GraphPad Software, La Jolla, Calif. 92037 USA) to determine concentration-response curves for calculating relative GI50s. […] The % growth inhibition of the test drug on cells were calculated as: [1−(Test Value)/(Control Value)]×100; these values were used to plot concentration-response curves, and then analyzed with linear regression software.

[2] = system: Nek2 in resistant cell line (A549); assay: Nek2 expression by immunoblotting; conditions: A549, 48 hours, immunoblot (FIG. 6B)
Description: (§1) Immunoblots: Cell lysates were by incubation of cells in radioimmunoprecipitation assay (RIPA) buffer (50 mM Tris-HCl, pH7.4, 150 mM NaCl, 1% NP40, 0.25% DOC, 0.1% SDS, 1 mM NaVO4, 1 mM EDTA, 1 ug/ml leupeptin, 1 μg/ml pepstatin) or 2.5× sample buffer (50 mM Tris-HCl, pH6.8, 1% SDS, 2.5% BME, 7.5% Glycerol, Bromophenol blue). Tissue samples were immersed in RIPA buffer, disrupted with a homogenizer, and centrifuged to clarify. Samples were then subjected to SDS-PAGE, blotted onto immunoblotting membranes, and incubated with primary antibodies in 3% BSA-TBST. Horseradish peroxidase—conjugated secondary antibodies were used for protein detection by enhanced chemiluminescence (Millipore, Billerica, Mass. 01821 USA). The following antibodies were used for Western blotting: anti-Rb monoclonal antibody 1F8 (Abcam, Cambridge, Mass. 02139-1517 USA); anti-p53 monoclonal antibody (Santa Cruz Biotechnology, Santa Cruz, Calif. 95060 USA); anti-β-actin monoclonal antibody AC-15 (Sigma Aldrich, St. Louis, Mo., USA).
(§2) To investigate this possibility, drug-responsive (HeLa, MDA-MB-468, HCT116) and resistant cells (A549) were synchronized by starvation and expression of Hec1 and Nek2 characterized at 1(G1), 27(G27), 32(G32), and 48(G48) hours. Differential expression patterns between Hec1 and Nek2 are apparent, indicating differences in regulation of Hec1/Nek2 pathways (FIG. 6A). […]

[3] = system: Nek2 in sensitive cell lines (HeLa, HCT116); assay: Nek2 expression by immunoblotting; conditions: 48 hours, immunoblot (FIG. 6B)
Description: as §1, §2

[4] = system: HeLa; assay: Synergy of Hec1 inhibitor with cytotoxic drug (combination index, MTS)
Description: (§3) Synergy: GI50s for selected drugs were determined and used to calculate a concentration ratio for use synergy assays with Hec1 inhibitors. Cells were treated with drugs 24 hours after being seeded in appropriate seeding numbers into 96 well plates containing low glucose DME with 10% FBS. […] Cell viability was determined by MTS assay using a CellTiter 96® Aqueous non-radioactive cell proliferation assay system (Promega, Madison, Wis. 53711 USA) according to the manufacturer's instructions. Optical density was determined using a Bio-Tek 340 spectrophotometer (Bio-Tek, Winooski, Vt. 05404) and were then processed using Excel (Microsoft, Redmond, Wash. 98052-7329) and GraphPad Prism 5 linear regression software (GraphPad Software, La Jolla, Calif. 92037 USA) to determine concentration-response curves for calculating relative GI50s. Synergy was determined by calculating a combination index value using the formula CI (combination index)=(CA,X/ICx,A)+(CB,X/ICx,B), where CA,X and CB,X are the concentrations of drug A and drug B used in combination to achieve x % drug effect. ICx,A and ICx,B are the concentrations for single agents to achieve the same effect.
Hec1 inhibitor-responsive cancer cells used for screening were treated with a mixture of Hec1 inhibitor and select anti-cancer drug at appropriate concentration ratios and evaluated for cell viability.

[5] = system: phosphorylated p73 in HeLa and A549 cells; assay: Immunoblots for phosphorylated p73
Description: as §1
P73 is a member of the p53-family that mediates apoptosis and replaces p53 function in p53-deficient cells. […] To investigate this, drug-responsive (HeLa) and drug-resistant cells (A549) carrying mutant p53 proteins were treated with Hec1 inhibitor 110095 for varying lengths of time.

[6] = system: K562R; assay: Synergy of Hec1 inhibitor with cytotoxic drug (combination index, MTS); conditions: in combination with paclitaxel
Description: as §3
(§4) Drugs that can target pathways unreached by other current anti-cancer drugs have even better clinical potential to be incorporated into current therapeutic regimens. […] Hec1 inhibitor-responsive cancer cells used for screening were treated with a mixture of Hec1 inhibitor and select anti-cancer drug at appropriate concentration ratios and evaluated for cell viability. […] Table 9 summarizes the results of synergism studies on a number of cancer derived cell lines treated with Hec1 inhibitor 110001 in combination cytotoxic drugs.

[7] = system: MEX-SA/Dx5; assay: as above; conditions: in combination with paclitaxel
Description: as §3, §4

[8] = system: cyclin B1 and cyclin D1 in HeLa; assay: Cyclin B1 and cyclin D1 content by immunoblotting; conditions: different time periods, immunoblot (FIG. 6C)
Description: as §1, §2

Row | Compound | GI50 [1] [nM] | Nek2 expression [2] | Nek2 expression [3] | Combination Index ([4]; in combination with Taxol) | Combination Index ([4]; in combination with doxorubicin) | Combination Index ([4]; in combination with topotecan) | time of peak p73 phosphorylation after drug treatment ([5]; immunoblot (FIG. 5A)) [h] | phosphorylation of p73 ([5]; immunoblot, treated for varying lengths of time, 200 nM (FIG. 5A)) | Combination Index [6] | Synergy [6] | Combination Index [7] | Synergy [7] | Cyclin B1 and cyclin D1 levels [8]
1 | COc1ccc(Oc2cc(C)c(-c3csc(NC(=O)c4ccncc4)n3)c(C)c2)cc1 [compound 101001, N-(4-(4-(4-methoxyphenoxy)-2,6-dimethylphenyl)thiazol-2-yl)isonicotinamide] | 34.9 | – | – | – | – | – | – | – | – | – | – | – | –
2 | COCCOc1cnc(Sc2cc(C)c(-c3csc(NC(=O)c4ccncc4)n3)c(C)c2)cn1 [compound 110095, N-(4-(4-(5-(2-methoxyethoxy)pyrazin-2-ylthio)-2,6-dimethylphenyl)thiazol-2-yl)isonicotinamide] | – | this effect is not seen | degradation of Nek2 | 1.22 | 1.55 | 1.90 | 48 | induced time-dependent phosphorylation of p73 | 0.65 | Yes | 1.41 | No | down regulated
